# Laboratory results reported in US20100234385A1 (Kaneka Corporation, priority 2006, published 2010).
# Experiments:
# melanocytes = test: Inhibitory effect on melanocytes in vitro; assay type: cell-based
# [1] = Sawabe et al. 2004, cited from earlier work
# [2] = BH4 concentration in the brain after oral administration for 3 consecutive days to hph-1 mice; conditions: 5 mg/kg oral, 3 consecutive days at 24-hour intervals, 2.5 hours after final dosing, versus non-dose group
# Description: The mice were biopsied 2.5 hours after the final dosing, their brains were excised and BH4 levels were quantified in the same manner as Example 1.
intracerebral BH4 concentrations [2],Compound,effects on melanocytes in vitro (melanocytes),time of sharp peak of BH4 after administration [1],time until BH4 concentration returns to the original level ([1]; after administration of BH4)
–,"6-(L-erythro-1,2-dihydroxypropyl)-pterin or 7-(L-erythro-1,2-dihydroxypropyl)-pterin [biopterin]",inhibitory effects,–,–
changes are not observed,"C[C@H](O)[C@H](O)[C@H]1CNc2nc(N)[nH]c(=O)c2N1 [BH4, L-erythro-5,6,7,8-tetrahydrobiopterin]",–,0.5 to 1 h,about 4 hours
